Source: the Biogen ADME set (Fang et al. 2023)
Converted amounts (≈) assume the structure as drawn.

Details: for aqueous solubility: pH 6.8

SMILES	MDR1-MDCK efflux ratio	intrinsic clearance, human liver microsomes	intrinsic clearance, rat liver microsomes	aqueous solubility	fraction unbound, human plasma	fraction unbound, rat plasma
CNc1ncnc2c1ncn2[C@H]1CC[C@H](NC(=O)CCCNC(=O)OC(C)(C)C)[C@H](O)[C@H]1O	3.2	5.08 mL/min/kg	19.9 mL/min/kg			
Cc1cc(OCC(=O)N(C)C2CCCCCCC2)no1	0.765	56.6 mL/min/kg	2210 mL/min/kg	43.9 µg/mL (≈ 156 µM)		
COc1ccc2nc(C(=O)Nc3cnc4c(cnn4C(C)C)c3)ccc2c1	0.464			0.15 µg/mL (≈ 0.415 µM)		
CC(C)C[C@H](CO)Nc1nc(S[C@@H](C)c2ccccc2)nc2nc(N)sc12		40.2 mL/min/kg	329 mL/min/kg			
Cn1cc(NC(=O)c2ccccc2C(F)(F)F)cn1	0.828	≤ 4.74 mL/min/kg	≤ 10.7 mL/min/kg	37.7 µg/mL (≈ 140 µM)		
Cc1cc(NC(=O)N2Cc3cc4c(cc3C3(CCCC3)C2)OCCO4)no1	0.72			0.3 µg/mL (≈ 0.812 µM)		
CCOC(=O)c1ccc(S(=O)(=O)N2CCc3cc(C(=O)OC)ccc32)cc1				0.83 µg/mL (≈ 2.13 µM)		
CC(=O)N1CC[C@H]2O[C@H]3c4ccc(O[C@@H]5O[C@H](CO)[C@@H](O[C@@H]6O[C@H](CO)[C@H](O)[C@H](O)[C@H]6O)[C@H](O)[C@H]5O)cc4OC(C)(C)[C@@H]3C[C@H]2C1	0.675	≤ 4.74 mL/min/kg	≤ 10.7 mL/min/kg			
CN(Cc1ccc(N)nc1)c1nc(C(F)(F)F)cs1	0.598	≤ 4.74 mL/min/kg	116 mL/min/kg			
CN(C(=O)C1CCN(c2ncccn2)CC1)C1CCCCCCC1	0.85	519 mL/min/kg	3890 mL/min/kg	49.4 µg/mL (≈ 150 µM)		
CCCc1ncncc1C(=O)NCc1nncn1CCC	14.7	≤ 4.74 mL/min/kg	38.8 mL/min/kg			
N#Cc1ccc(CCC(=O)Nc2ccncc2)cc1	1.39	≤ 4.74 mL/min/kg	60.3 mL/min/kg	37.9 µg/mL (≈ 151 µM)		
COc1ccc2nc(C)nc(N3CC(CO)C3)c2c1	11.5	5.26 mL/min/kg	13.6 mL/min/kg	29.3 µg/mL (≈ 113 µM)		
CCN(C/C=C\c1ccc(C2CCCCC2)c(Cl)c1)C1CCCCC1		47.5 mL/min/kg	591 mL/min/kg	6.6 µg/mL (≈ 18.3 µM)	0.0014	0.00541
CC(=O)NC1(C(=O)N2CCCN(c3cccnn3)CC2)CCCCC1	21.8	7.73 mL/min/kg	20.9 mL/min/kg	48.3 µg/mL (≈ 140 µM)		
Nc1ncnc2c1c(-c1cnc3[nH]ccc3c1)nn2C1CCCC1	6.9	101 mL/min/kg	1210 mL/min/kg		0.0729	0.0603
Cc1ccc(-c2nnc(SCCn3cccn3)[nH]2)cc1		96.9 mL/min/kg	302 mL/min/kg	21.8 µg/mL (≈ 76.4 µM)		
CSc1nnc(CCCNc2cc(C)ccn2)n1C1CCCC1	18.2	138 mL/min/kg	3220 mL/min/kg			
Cc1nnc(NCCc2ccc3c(c2)OCO3)c(C#N)c1C	0.636	52.1 mL/min/kg	935 mL/min/kg	22.4 µg/mL (≈ 75.6 µM)		
N#CCCN(C(=O)c1cccs1)C12CC3CC(CC(C3)C1)C2	0.531	262 mL/min/kg	2310 mL/min/kg	7.2 µg/mL (≈ 22.9 µM)		
CC(C)N(CCCNC(=O)Nc1ccc(C(C)(C)C)cc1)C[C@@H]1O[C@@H](n2ccc3c(N)ncnc32)[C@H](O)[C@H]1O	6.05	187 mL/min/kg	1930 mL/min/kg			
C[C@@]12CCCN1C(=O)[C@H](C1CCCCC1)NC2=O	2.65	≤ 4.74 mL/min/kg	20.8 mL/min/kg			
CN(C)C1(CNC(=O)N2CCCC(C)(C)CC2)CCOCC1	16.5	8.43 mL/min/kg	120 mL/min/kg	56.9 µg/mL (≈ 183 µM)		
CCc1nnc(Oc2cccnc2)c(C#N)c1CC	0.781	4.94 mL/min/kg	21.6 mL/min/kg	30.5 µg/mL (≈ 120 µM)		
Cc1cnc(NC(=O)c2cc(S(=O)(=O)N(C)C)ccc2N2CCCC2)s1	19.9			0.21 µg/mL (≈ 0.532 µM)		
CNC(=O)c1ccc(N2CCCc3cc(OC)ccc3C2)nn1	0.886	11.8 mL/min/kg	860 mL/min/kg			

Results, then the molecule that gave them:

MDR1-MDCK efflux ratio	intrinsic clearance, human liver microsomes	intrinsic clearance, rat liver microsomes	aqueous solubility	fraction unbound, human plasma	fraction unbound, rat plasma	SMILES
0.724	45.9 mL/min/kg	281 mL/min/kg				O=c1c2cnccc2ncn1Cc1ccc2c(c1)CCCO2
0.43			0.35 µg/mL (≈ 1.06 µM)			COc1ccc(C(=O)Nc2cc(-c3ccc(F)c(F)c3)no2)cc1
	≤ 4.74 mL/min/kg	162 mL/min/kg	32.2 µg/mL (≈ 108 µM)			CC1CC1C(=O)N1CCC(n2c(=O)[nH]c3ccccc32)CC1 (stereo unspecified)
0.717	84.7 mL/min/kg	800 mL/min/kg	36.2 µg/mL (≈ 133 µM)			Fc1ccccc1CN1CCN(c2ncccn2)CC1
	60.3 mL/min/kg	167 mL/min/kg	46.4 µg/mL (≈ 145 µM)			COc1ccccc1C(=O)Nc1cccc(-c2ccnc(C)n2)c1
0.72	92.8 mL/min/kg	1360 mL/min/kg	42.3 µg/mL (≈ 124 µM)			CCCOc1ccccc1C(=O)N1CC(Oc2cccc(OC)c2)C1
0.995	61.5 mL/min/kg	878 mL/min/kg	3.82 µg/mL (≈ 11 µM)			CNc1ncc(-c2nc(C3(c4ccccc4)CC3)nn2C(C)(C)C)cn1
	23.2 mL/min/kg	106 mL/min/kg	32.5 µg/mL (≈ 72.2 µM)			C[C@@H](Oc1cc(-c2cnn(C3CCNCC3)c2)cnc1N)c1c(Cl)ccc(F)c1Cl
1.82	273 mL/min/kg	2040 mL/min/kg				CC(C)Cc1nn(C)c(=O)c2c(SCCCO)n(Cc3cccc4ccccc34)cc12
			0.34 µg/mL (≈ 1.07 µM)			CCOc1ccccc1NC(=O)C(=O)NCc1ccccc1F
17	23.8 mL/min/kg	5470 mL/min/kg	32.2 µg/mL (≈ 101 µM)			Cc1cc(NCc2ccnc(N3CCCC3)c2)c2ccccc2n1
11	13.3 mL/min/kg	249 mL/min/kg				COc1ccc(COc2ccc(Cc3cnc(N)nc3N)cc2OC)cc1
	76.2 mL/min/kg	1140 mL/min/kg		0.115	0.0899	O=C(CN1CCCC(c2cccc(Cc3cccc(F)c3)n2)C1)N1CCCC1 (stereo unspecified)
2.68	≤ 4.74 mL/min/kg	340 mL/min/kg				CCn1cnnc1CN(C)C1CCN(c2ccccc2F)CC1
3.49	54 mL/min/kg	1970 mL/min/kg	43.1 µg/mL (≈ 137 µM)			CN(Cc1nc(N)c2ccccc2n1)Cc1ccc(F)cc1F
0.998	223 mL/min/kg	1440 mL/min/kg	23 µg/mL (≈ 52.4 µM)	0.00655	0.0102	CC(C)(C)C(=O)N1CCC(Cc2ccc(-c3cccs3)cc2)(C(=O)N2CCCC2)CC1
0.527	111 mL/min/kg	1120 mL/min/kg	38 µg/mL (≈ 140 µM)			Fc1cccc(CN2CCN(c3ncccn3)CC2)c1
0.797	33.2 mL/min/kg	861 mL/min/kg				COc1ccc(CC2CN3CCN(C(=O)OCc4ccccc4)CC3CO2)cc1 (stereo unspecified)
0.617	41.7 mL/min/kg	2400 mL/min/kg	42.6 µg/mL (≈ 154 µM)			Cc1ccc(-c2ccc(=O)n(Cc3ccncc3)n2)cc1
	≤ 4.74 mL/min/kg	262 mL/min/kg	11 µg/mL (≈ 31.6 µM)			CC(C)[C@@H](C(=O)Nc1nc2ccccc2[nH]1)N1Cc2ccccc2C1=O
25.6	≤ 4.74 mL/min/kg	28.1 mL/min/kg	40.4 µg/mL (≈ 125 µM)			O=c1[nH]nc(CCCN2CCOCC2)n1-c1cccc(Cl)c1
6.24	84.8 mL/min/kg	108 mL/min/kg	56.6 µg/mL (≈ 127 µM)			Cn1c(=O)n(C)c2cc(CN3CCC(c4ccc(Cc5ccccc5F)cn4)CC3)ccc21
0.816	93.3 mL/min/kg	1960 mL/min/kg	54.9 µg/mL (≈ 169 µM)			Fc1cccc(OC2CCN(Cc3nc4ccccc4[nH]3)CC2)c1
9.31	228 mL/min/kg	1980 mL/min/kg	42 µg/mL (≈ 96 µM)			Cc1sc2nc(CN3CCC(C)CC3)nc(N3CCN(c4cnccn4)CC3)c2c1C
2.37	28.7 mL/min/kg	142 mL/min/kg	6.1 µg/mL (≈ 10.4 µM)			CC(C)(C)Sc1c(CC(C)(C)C(=O)O)n(Cc2ccc(Cl)cc2)c2ccc(OCc3ccc4ccccc4n3)cc12
0.595	11.5 mL/min/kg	238 mL/min/kg	15.7 µg/mL (≈ 49.9 µM)			CNC(=O)c1ccc(CN(C)c2c(F)cc(C#N)cc2F)cc1
1.24	≤ 4.74 mL/min/kg	109 mL/min/kg	5.09 µg/mL (≈ 21.4 µM)			O=C(Nc1nc2ccccc2[nH]1)c1ccncc1
0.974	15.8 mL/min/kg	440 mL/min/kg	34.4 µg/mL (≈ 113 µM)			c1ccc(-c2n[nH]c(C3CCN(c4ccccn4)CC3)n2)cc1
